One data set deals with Huh7-NC12 cells. The data set is described as follows: PrestoBlue cell viability of liver cancer cells.
A further data set relates to PANC-1 cells. The experiment in a line: Wound healing assay. It is filed as cell-based, human. As to conditions: different concentrations of C52, 24 h, dose-dependent. As to the method: Wound healing assay: Cells were seeded in 6-well plates containing complete medium and cultured at 37° C. in a humidified air environment containing 5% CO2. […] Then, the cells were washed 3 times with PBS, and then incubated with serum-free RPMI-1640 medium containing different concentrations of […] for 24 h. The wound area and migrated cells within the wound area were photographed using a phase-contrast microscope. The wound area was measured using Image J software.

Another data set deals with BALB/c mice. The data set is described as follows: Circulating plasma exosomes in mice after oral dosing. The conditions noted are these: 100 mg/kg once a day for 14 days by gavage, vs vehicle. It is filed as in vivo, mouse. As to the method: In vivo experiments: 6- to 8-week-old BALB/c mice (18 to 20 g) were purchased from Beijing Life River Experimental Animal Technology Co., Ltd. (Beijing, China) and housed at the Experimental Animal Center of Nanjing University of Traditional Chinese Medicine. Animals were maintained at 22±2° C. on a regular 12h/12h light-dark cycle with free access to food and water. All animal experiments were approved by the Ethics Committee of Nanjing University of Traditional Chinese Medicine. Animal care was provided according to IACUC-approved guidelines.
Twenty-four hours after the last administration, the mice were anesthetized with pentobarbital sodium, from which blood samples were collected, and then the mice were euthanized. […].
Isolation of exosomes from mouse plasma: To obtain plasma for exosome isolation, blood was centrifuged at 500 g for 5 min at 4° C.; 2000 g for 15 min; and treated with a solution of 10000 g for 20 min to remove cells, debris and large vesicles. The crude exosome pellet was resuspended in 60 ml of cold PBS (Invitrogen), and then the exosome suspension was centrifuged at 100,000 g for 70 min at 4° C. For sucrose density gradient centrifugation, mix the washed exosome pellet with 2 mL of […] sucrose solution and add to a sucrose step gradient column (10 2 ml sucrose gradients from […] using 20 mM HEPES as diluent). […]

For the next data set, the system named is A549 cells. The experiment in a line: Exosome release from lung cancer cells (NTA, Western blot). It is filed as cell-based, human. The procedure: Human non-small cell lung cancer A549 cells and human pancreatic cancer PANC-1 cells were purchased from the Chinese Academy of Sciences Stem Cell Bank (Shanghai, China). […] Purification, characterization, and analysis of exosomes: To purify exosomes from cell culture supernatants, cells were cultured for 3 days in DMEM medium supplemented with 10% exosome-free FBS prepared by ultracentrifugation of regular FBS at 120,000 g for 16 h. Cell culture supernatants were collected and centrifuged at 500 g for 5 min and then at 2,000 g for 20 min to remove dead cells and cell debris. Then, large vesicles were removed by centrifugation at 12,000 g for 30 minutes. Crude exosomes were pelleted by ultracentrifugation of the supernatant at 110,000 g for 70 min (Backman Ti70), washed with PBS and filtered (0.2 μm). The pellet was then suspended and ultracentrifuged again at 110,000 g for 70 minutes. All ultracentrifugations were performed at 4° C. The size and number of exosomes were analyzed using an LM10 nanoparticle tracking system (NanoSight) equipped with a blue laser (405 nm). Transmission electron microscope (TEM) observation: The morphology of exosomes prepared from the culture supernatant was observed by transmission electron microscope (TEM). Exosome pellets were fixed overnight at 4° C. in 2% glutaraldehyde. Load a drop of 10 μL of the exosome suspension onto the Formvar/Carbon-coated TEM copper grid and let it stand for 20 min. Drain excess fluid. Samples were fixed with 1% uranyl acetate for 5 min, washed 8 times with double distilled water, and dried under incandescent lamp for 10 min, then examined with Tecnai G2 Spirit Bio TWIN transmission electron microscope (FEI, Hillsboro, USA, working voltage 120 kV). […] The lysate was centrifuged to remove insoluble material.

The test system of data set [1] is 84 selected human cancer-associated proteins in PANC-1 cells. The conditions noted are these: 3 μM C52 or 5 μM C52 for 48 h.
Method: Cell culture: Human non-small cell lung cancer A549 cells, human pancreatic cancer PANC-1 cells, human glioma U87 cells, human liver cancer HUH7 cells and SMMC-7721 cells, and human gastric cancer AGS cells were purchased from ATCC or Stem Cell Bank of Chinese Academy of Sciences (Shanghai, China). Cells were cultured in RPMI1640 medium containing 10% fetal bovine serum (Sigma, USA), 100 U penicillin and 100 μg/ml streptomycin (Gibco, USA) at 37° C. in a humidified atmosphere containing 5% CO2.
A total of 200 g of lysate protein was run on one Human XL Tumor Array (R&D Systems, Abingdon, UK). Followed the manufacturer's instructions exactly. The protein chip membrane was covered with plastic film and exposed to X-ray film for 8 minutes. Optical density on exposed X-ray film (hu.q, HQ-320XT, China) was quantified using a transmission mode scanner (EPSON, Beijing, China) and analyzed using Image J software.

This is an account of results in patent US20250041311A1, “Compound For Treating or Preventing Vimentin-Mediated Diseases” (Aluda Pharmaceuticals, Inc., priority 2021, published 2025).

The structures appear in SMILES notation.

Method for U87 cells: Western blotting: Exosomes from cultures in different conditions were collected and purified by a classical differential centrifugation protocol, and then lysed with PMSF-containing RIPA buffer (Beyond Biotechnology, Shanghai, China). The lysate was centrifuged to remove insoluble material. The concentration of protein was determined by enhanced BCA protein assay kit (Beyontian Biotechnology, Shanghai, China). 40 g of proteins were separated by sodium dodecyl sulfate-polyacrylamide gel electrophoresis (SDS-PAGE) and transferred to a polyvinylidene difluoride membrane (Merck Millipore). Membranes were blocked with 5% milk for 1 h and then incubated with primary antibodies overnight at 4° C. Membranes were washed 3 times and then incubated with secondary antibodies for 1 h at room temperature. Bands were detected by Gel Imaging System (Bio-Rad, USA) and measured by Image J. The primary antibodies used were rabbit anti-β-actin, GAPHD, CD63, CD9, TSG101 and vimentin (Abcam, UK).

As to `O=C(Nc1ccc(F)cc1)Nc1ccc(Nc2nc(/C=C/c3ccccc3)nc(N3CCOCC3)n2)cc1` [Compound C52], the cytotoxicity result with Huh7-NC12 cells (48 h, highest concentration 10,000 nM, high concentrations 3,160 and 10,000 nM) is “not cytotoxic”. Besides, the survival rate result with Huh7-NC12 cells (after two days of treatment) is “about 90%”. In addition, the “toxicity to Huh7-NC12 cells” value in the data set on Huh7-NC12 cells (high concentrations (>3160 nM)) is given as “not toxic”. In the data set with U87 cells, the “amount of exosomal markers CD9 and CD63 inside the cells” value is reported as “did not reduce”; the “extracellular levels of exosomal markers CD9 and CD63” value is listed as “reduced”. The “CD9 in the cell culture medium” value in the data set on U87 cells (vimentin-knockdown U87 Vim+/- cells, 2 μM C52, 72 h) was “further reduction”. Also, the “closure rate of the gap size” value with PANC-1 cells is “significantly decreased”. Moreover, the “exosomal markers CD63 and TSG101 in plasma exosomes” value with BALB/c mice is “significantly decreased”. Also, the “exosomes in culture supernatant (nanoparticle tracking analysis)” value in the data set with A549 cells (1 μM C52 vs DMSO) is “significantly reduced”. Also, the intracellular exosome levels entry in the data set with A549 cells (Western blot, 0.1, 1 and 10 μM C52, 48 h) is recorded as “did not reduce”. Moreover, the “content of exosomal markers (CD9, CD63, TSG101) in prepared exosome samples” value in the data set with A549 cells (Western blot, 0.1, 1 and 10 μM C52, 48 h, extracellular) is “significant reduction”. Further, the “effect on protein levels of vimentin and other signaling molecules involved in cell proliferation” value in data set [1] is reported as “little or no effect”.
